Measured values taken from the supplement of paper PMC4862054.

Legend:
Settings in all cases: 72 h
MFM-223 [1] = system: MFM-223
Outline: (§1)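 Compound dissolved in 5 µl medium was placed in 384-well plates before 20 µl of breast cancer cell suspension was added, and the plates were incubated for 72 h. Cells then received 2.5 µl CellTiter-Blue for 2 h at 37 °C, and fluorescence was read at 560/590 nm. EC50 values come from percent-inhibition dose-response fits that were censored at the highest concentration, with plates normalised to vehicle and a positive kill control and rows with a zero drug sensitivity score excluded.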

BT-474 [2] = system: BT-474
Outline: as §1

HCC1143 [3] = system: HCC1143
Outline: as §1

MDA-MB-436 = system: MDA-MB-436
Outline: as §1

HCC1937 [4] = system: HCC1937
Outline: as §1

HCC1599 [5] = system: HCC1599
Outline: as §1

MDA-MB-468 [6] = system: MDA-MB-468
Outline: as §1

BT-549 = system: BT-549
Outline: as §1

SK-BR-3 [7] = system: SK-BR-3
Outline: as §1

CAL-120 [8] = system: CAL-120
Outline: as §1

Hs578T [9] = system: Hs578T
Outline: as §1

MDA-MB-231 [10] = system: MDA-MB-231
Outline: as §1

HDQ-P1 [11] = system: HDQ-P1
Outline: as §1

DU-4475 [12] = system: DU-4475
Outline: as §1

CAL-148 [13] = system: CAL-148
Outline: as §1

MDA-MB-453 = system: MDA-MB-453
Outline: as §1

CAL-51 [14] = system: CAL-51
Outline: as §1

CAL-85-1 [15] = system: CAL-85-1
Outline: as §1

MFM-223 [16] = system: MFM-223; remark: listed apart in the source
Method: (§2)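 Drug sensitivity and resistance testing (DSRT) of breast cancer cell lines in 384-well plates, 5 concentrations in 10-fold dilutions over a compound-specific 10,000-fold range. After 72 h, cytotoxicity was read by CellTox Green fluorescence and viability by CellTiter-Glo luminescence (multiplexed), normalised to DMSO and benzethonium chloride controls. EC50 is the inflection point of the fitted dose-response curve (bottom asymptote free, so it can be relative for partial curves) and is censored at the highest tested concentration. Rows with DSS 0 (no meaningful response) were excluded.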

HDQ-P1 [17] = system: HDQ-P1; remark: listed apart in the source
Method: as §2

DU-4475 [18] = system: DU-4475; remark: listed apart in the source
Method: as §2

HCC1937 [19] = system: HCC1937; remark: listed apart in the source
Method: as §2

HCC1599 [20] = system: HCC1599; remark: listed apart in the source
Method: as §2

MDA-MB-468 [21] = system: MDA-MB-468; remark: listed apart in the source
Method: as §2

CAL-120 [22] = system: CAL-120; remark: listed apart in the source
Method: as §2

CAL-148 [23] = system: CAL-148; remark: listed apart in the source
Method: as §2

Hs578T [24] = system: Hs578T; remark: listed apart in the source
Method: as §2

CAL-51 [25] = system: CAL-51; remark: listed apart in the source
Method: as §2

CAL-85-1 [26] = system: CAL-85-1; remark: listed apart in the source
Method: as §2

MDA-MB-231 [27] = system: MDA-MB-231; remark: listed apart in the source
Method: as §2

MFM-223 [28] = system: MFM-223; remark: listed apart in the source
Outline: (§3)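 Two sequential readouts followed a 72 h incubation of breast cancer cell lines with compound at 5 concentrations in 10-fold steps over a compound-specific 10,000-fold range: CellTox Green fluorescence (485/520 nm) for cell death, then CellTiter-Glo luminescence, after 10 min at room temperature, for viability. Each plate was normalised to 0.1 % DMSO and a positive kill control. Dose-response curves were fitted for EC50, censored at the top concentration.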

BT-474 [29] = system: BT-474; remark: listed apart in the source
Outline: as §3

HDQ-P1 [30] = system: HDQ-P1; remark: listed apart in the source
Outline: as §3

DU-4475 [31] = system: DU-4475; remark: listed apart in the source
Outline: as §3

HCC1143 [32] = system: HCC1143; remark: listed apart in the source
Outline: as §3

HCC1599 [33] = system: HCC1599; remark: listed apart in the source
Outline: as §3

MDA-MB-468 [34] = system: MDA-MB-468; remark: listed apart in the source
Outline: as §3

SK-BR-3 [35] = system: SK-BR-3; remark: listed apart in the source
Outline: as §3

CAL-120 [36] = system: CAL-120; remark: listed apart in the source
Outline: as §3

CAL-148 [37] = system: CAL-148; remark: listed apart in the source
Outline: as §3

Hs578T [38] = system: Hs578T; remark: listed apart in the source
Outline: as §3

CAL-51 [39] = system: CAL-51; remark: listed apart in the source
Outline: as §3

CAL-85-1 [40] = system: CAL-85-1; remark: listed apart in the source
Outline: as §3

MDA-MB-231 [41] = system: MDA-MB-231; remark: listed apart in the source
Outline: as §3

For `COc1cc([C@@H]2c3cc4c(cc3[C@@H](O[C@@H]3O[C@@H]5CO[C@@H](c6cccs6)O[C@H]5[C@H](O)[C@H]3O)[C@H]3COC(=O)[C@H]23)OCO4)cc(OC)c1O` [Teniposide], the “EC50, CellTiter-Blue viability” value (MFM-223 [1]) was 1.85 µM, the “EC50, CellTiter-Blue viability” value (BT-474 [2]) was 5.94 µM and the “EC50, CellTiter-Blue viability” value (HCC1143 [3]) was 0.829 µM. For the same molecule, the “EC50, CellTiter-Blue viability” value (MDA-MB-436) was 1.18 µM, the “EC50, CellTiter-Blue viability” value (HCC1937 [4]) was 0.103 µM and the “EC50, CellTiter-Blue viability” value (HCC1599 [5]) was 1.74 µM. The “EC50, CellTiter-Blue viability” value (MDA-MB-468 [6]) was 1.08 µM, the “EC50, CellTiter-Blue viability” value (BT-549) was 1.51 µM and the “EC50, CellTiter-Blue viability” value (SK-BR-3 [7]) was 0.0917 µM. For the same molecule, the “EC50, CellTiter-Blue viability” value (CAL-120 [8]) was 0.999 µM, the “EC50, CellTiter-Blue viability” value (Hs578T [9]) was 3.83 µM and the “EC50, CellTiter-Blue viability” value (MDA-MB-231 [10]) was 2.19 µM. For the same molecule, the “EC50, CellTiter-Blue viability” value (HDQ-P1 [11]) was 1.7 µM, the “EC50, CellTiter-Blue viability” value (DU-4475 [12]) was 0.0371 µM and the “EC50, CellTiter-Blue viability” value (CAL-148 [13]) was 0.22 µM. For the same molecule, the “EC50, CellTiter-Blue viability” value (MDA-MB-453) was 1.84 µM, the “EC50, CellTiter-Blue viability” value (CAL-51 [14]) was 0.0758 µM and the “EC50, CellTiter-Blue viability” value (CAL-85-1 [15]) was 1.45 µM. The “EC50, CellTox Green” value (MFM-223 [16]) was 0.835 µM, the “EC50, CellTox Green” value (HDQ-P1 [17]) was 2.38 µM and the “EC50, CellTox Green” value (DU-4475 [18]) was 1.62 µM. For the same molecule, the “EC50, CellTox Green” value (HCC1937 [19]) was 0.1 µM, the “EC50, CellTox Green” value (HCC1599 [20]) was 0.35 µM and the “EC50, CellTox Green” value (MDA-MB-468 [21]) was 4.76 µM. The “EC50, CellTox Green” value (CAL-120 [22]) was 4.09 µM, the “EC50, CellTox Green” value (CAL-148 [23]) was 0.0107 µM and the “EC50, CellTox Green” value (Hs578T [24]) was 4 µM. The “EC50, CellTox Green” value (CAL-51 [25]) was 0.879 µM, the “EC50, CellTox Green” value (CAL-85-1 [26]) was 2.39 µM and the “EC50, CellTox Green” value (MDA-MB-231 [27]) was 1.19 µM. For the same molecule, the “EC50, CellTiter-Glo” value (MFM-223 [28]) was 1.74 µM, the “EC50, CellTiter-Glo” value (BT-474 [29]) was 0.888 µM and the “EC50, CellTiter-Glo” value (HDQ-P1 [30]) was 5.21 µM. The “EC50, CellTiter-Glo” value (DU-4475 [31]) was 0.184 µM, the “EC50, CellTiter-Glo” value (HCC1143 [32]) was 0.842 µM and the “EC50, CellTiter-Glo” value (HCC1599 [33]) was 0.176 µM. The “EC50, CellTiter-Glo” value (MDA-MB-468 [34]) was 0.614 µM, the “EC50, CellTiter-Glo” value (SK-BR-3 [35]) was 0.138 µM and the “EC50, CellTiter-Glo” value (CAL-120 [36]) was 2.69 µM. The “EC50, CellTiter-Glo” value (CAL-148 [37]) was 0.393 µM, the “EC50, CellTiter-Glo” value (Hs578T [38]) was 2.06 µM and the “EC50, CellTiter-Glo” value (CAL-51 [39]) was 0.666 µM. The “EC50, CellTiter-Glo” value (CAL-85-1 [40]) was 1.19 µM and the “EC50, CellTiter-Glo” value (MDA-MB-231 [41]) was 1.91 µM.
